# Laboratory results published in PMC12391994, “Synthesis of a fac-Tricarbonylrhenium(I) Complex with Pyrithione, Its Physicochemical Characterization, and Assessment of Biological Effects” (ACS Omega, 2025).
# Where “and” joins values, the source holds several entries; their conditions need not be identical. Equal entries are not always repeated.
# Legend:
# [1] = system: S. aureus MRSA ATCC 43300; assay: Antibacterial MIC assay, S. aureus MRSA ATCC 43300; assay type: cell-based, Staphylococcus aureus; settings: 18 h, visual inspection
# Experimental: (§1) The antibacterial effect of the complex was tested against the Gram-negative strain Escherichia coli (E. coli) ATCC 25922, the Gram-positive reference strain Staphylococcus aureus (S. aureus) ATCC 25923, and the methicillin-resistant S. aureus MRSA ATCC 43300 strain. MRSA strains are responsible for several difficult-to-treat hospital-acquired infections.
# (§2) The following bacterial strains were used in our experiments: Gram-positive S. aureus American Type Culture Collection (ATCC) 25923 as the methicillin-susceptible reference bacterial strain; methicillin-resistant S. aureus ATCC 43300 (MRSA) strain; E. coli ATCC 25922 as a Gram-negative bacterial strain.
# (§3) MIC values of the complexes were determined in 96-well plates based on the Clinical and Laboratory Standard Institute guidelines (CLSI guidelines). The stock solutions of the compound (dissolved in DMSO at 5 mM concentration) were diluted in 100 μL of Mueller Hinton Broth. Then, 10^–4 dilution of an overnight bacterial culture in 100 μL of medium was added to each well, with the exception of the medium control wells.
# E. coli ATCC 25922 = assay: Antibacterial MIC assay, E. coli ATCC 25922; assay type: cell-based, Escherichia coli; settings: 18 h, visual inspection
# Experimental: as §1, §2, §3
# [2] = target: T1, cathepsin B (endopeptidase activity) (Homo sapiens, UniProt P07858); assay: Determination of inhibition constants, cathepsin B endopeptidase activity; assay type: biochemical; settings: substrate Z-RR-AMC
# T1 construct: made in house; host or cells: E. coli
# Experimental: Human recombinant cathepsin B was expressed in E. coli, recombinant cathepsin V was expressed in Pichia pastoris, and human recombinant cathepsin L was expressed in E. coli, as reported. − For the determination of cathepsin B endopeptidase and exopeptidase activities, 100 mM phosphate buffer (pH 6.0) and 60 mM acetate buffer (pH 5.0) were used, respectively, and for the determination of cathepsin V and L activities, 100 mM acetate buffer (pH 5.5) was used. All buffers contained 0.1% PEG 8000 (Sigma-Aldrich, St. Louis, MO), 5 mM cysteine, and 1.5 mM EDTA. Prior to the assay, the enzymes were activated in the assay buffer for 5 min at 37 °C.
# Inhibition constants were calculated from the reaction velocities measured at three substrate concentrations (the substrate Z-Arg-Arg-AMC at concentrations of 60, 180, and 360 μM and the substrate Abz-Gly-Ile-Val-Arg-Ala-Lys(Dnp)-OH at concentrations of 1, 3, and 6 μM to assess cathepsin B endopeptidase and exopeptidase activity, respectively) in the presence of seven concentrations of the inhibitor (0, 20, 40, 60, 80, 100, and 200 μM). […] Formation of fluorescent degradation products was monitored as described above. […]
# CCD-19Lu cells = assay: MTT cytotoxicity assay, CCD-19Lu; assay type: cell-based, human; settings: 72 h incubation, noncancerous fibroblast
# Experimental: (§4) Its cytotoxicity was determined in the human HeLa cervical cancer cell line, the drug-sensitive Colo205 and its resistant counterpart, the ABCB1 expressing Colo320 colon adenocarcinoma cancer cell lines, using the colorimetric 3-(4,5-dimethylthiazol-2-yl)-2,5-diphenyltetrazolium bromide (MTT) test. To investigate the selectivity toward cancer cells, the noncancerous fibroblast CCD-19Lu cell line was included.
# The tested compound was dissolved in DMSO to prepare a 5 mM stock solution, which was diluted in complete culture medium, to study the effect of compounds on cell growth of human colonic adenocarcinoma cell lines. Doxorubicin was used as the positive control. The cells were treated with a trypsin-versene (EDTA) solution. Cells were adjusted to a density of 1 × 10^4 cells in 100 μL of the appropriate culture medium and were added to each well, with the exception of the medium control wells. Except for the semiadherent Colo205 and Colo320 cell lines, the other adherent cell lines were seeded 24 h prior to the assay. Then, stock solutions were diluted in the appropriate culture medium, and 2-fold serial dilutions of compounds were prepared in 100 μL of the medium, horizontally. […] Cell growth was determined by measuring the optical density (OD) at 540/630 nm with a Multiscan EX ELISA reader (Thermo Labsystems, Cheshire, WA). […]
# S. aureus ATCC 25923 = assay: Antibacterial MIC assay, S. aureus ATCC 25923; assay type: cell-based, Staphylococcus aureus; settings: 18 h, visual inspection
# Experimental: as §1, §2, §3
# Colo320 cells = assay: MTT cytotoxicity assay, Colo320; assay type: cell-based, human; settings: 72 h incubation
# Experimental: as §4
# Drug-sensitive Colo205 (ATCC-CCL-222) and ABCB1 (MDR1)-LRP expressing and doxorubicin-resistant Colo320/MDR-LRP (ATCC-CCL-220.1) human colonic adenocarcinoma cell lines were purchased from LGC Promochem (Teddington, U.K.). The cells were cultured in RPMI 1640 medium supplemented with 10% heat-inactivated fetal bovine serum, 2 mM L-glutamine, 1 mM Na-pyruvate, and 10 mM HEPES.
# The tested compound was dissolved in DMSO to prepare a 5 mM stock solution, which was diluted in complete culture medium, to study the effect of compounds on cell growth of human colonic adenocarcinoma cell lines. Doxorubicin was used as the positive control. The cells were treated with a trypsin-versene (EDTA) solution. […] Cell growth was determined by measuring the optical density (OD) at 540/630 nm with a Multiscan EX ELISA reader (Thermo Labsystems, Cheshire, WA). […]
structure (smiles),measurement,setting,value
"N#Cc1ccccc1.[C-]#[O+].[C-]#[O+].[C-]#[O+].[O-]n1ccccc1=S.[Re+] [complex 4, fac-[Re(CO)3(pth)(benzonitrile)]]",MIC S. aureus MRSA ATCC 43300,[1],12.5 µM
same,MIC E. coli ATCC 25922,E. coli ATCC 25922,50 µM
same,"mode of inhibition, cathepsin B endopeptidase activity",[2],uncompetitive
same,"Ki′ (dissociation of enzyme–substrate–inhibitor complex), endopeptidase activity",[2]; uncompetitive inhibition,17.02 ± 1.59 μM and 17.0 ± 1.6 ^c μM
same,IC50,CCD-19Lu cells,5.47 ± 0.17 µM
same,MIC,S. aureus ATCC 25923,6.25 µM
same,IC50,Colo320 cells,10.5 ± 0.85 µM
